Data from US6376488B1, “Benzoxazine α-1 adrenergic compounds” (Abbott Laboratories, priority 2000, dated 2002).
Structures can show the parent of a compound that is named as a salt.

target: T1, α1a (rat) adrenoreceptor (Rattus norvegicus, UniProt P43140); test: [3H]-prazosin radioligand binding, cloned α1a (rat) adrenoreceptor in LTK cells; conditions: cloned receptor in LTK cell membranes, [3H]prazosin 0.2 nM
T1 sequence (P43140 1-466): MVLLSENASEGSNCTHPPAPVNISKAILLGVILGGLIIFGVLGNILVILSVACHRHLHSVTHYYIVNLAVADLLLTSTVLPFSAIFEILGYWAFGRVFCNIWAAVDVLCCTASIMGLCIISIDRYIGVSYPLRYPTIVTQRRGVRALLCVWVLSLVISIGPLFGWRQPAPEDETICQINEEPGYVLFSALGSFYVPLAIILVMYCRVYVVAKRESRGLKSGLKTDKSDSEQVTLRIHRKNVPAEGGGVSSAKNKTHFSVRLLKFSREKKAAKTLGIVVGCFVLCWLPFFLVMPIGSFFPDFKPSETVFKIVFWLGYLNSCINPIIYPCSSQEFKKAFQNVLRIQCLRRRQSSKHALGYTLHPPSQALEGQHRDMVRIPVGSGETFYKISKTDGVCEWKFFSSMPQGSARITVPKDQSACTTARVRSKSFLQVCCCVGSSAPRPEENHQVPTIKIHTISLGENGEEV
Source text: The cDNA clones encoding the α1, adrenoreceptors were obtained from TULCO (Triangle Universities Licensing Consortium, Research Triangle Park, N.C.) and inserted into the eukaryotic expression vector SnaB30. In this vector, expression of the adrenoreceptor gene is under the transcriptional control of an SV40 early promoter. Positive drug selection is provided by a neomycin-resistance gene. Mouse fibroblast cells (LTK) were transfected with the α1 expression plasmids and grown in Dulbecco's modified Eagle's medium (DMEM) containing 10% fetal calf serum and 30 μM G418. […] Stable single cell clones derived from the parental lines were screened in adrenoreceptor binding assays to identify clones having high adrenoreceptor density. Roller bottle cultures of the cloned lines were used to provide cell membranes for subsequent adrenoreceptor binding characterization studies. A cell line containing the SnaB30 vector expressing the human erythropoietin gene served as a negative control.
For adrenoreceptor binding assays, large scale membrane preparations were utilized in which 6 million cells were seeded into small (450 cm^2) Coming tissue culture roller bottles. DMEM (200 mL) containing 10% fetal calf serum and 300 μM G418 were added to each roller bottle. A 95% air/5% CO2 gas mixture (sterile) was injected into each roller bottle prior to sealing, and the bottles were then incubated at 37° C. on a roller rack for 5 days. Cells were refed with fresh medium after 3 days in culture.
On the fifth day of culture, growth medium was removed from cells grown in roller bottles, and the cells were washed twice with PBS (Sigma, 120 mM NaCl, 2.7 mM KCl, 10 mM Na2HPO4-NaH2PO4, pH=7.4). Cells were detached from the roller bottles by incubating for 15 minutes at 37° C. in a Tris-EDTA solution (10 mM Tris, 100 mM NaCl, 1 mM EDTA, pH=7.4). The cell suspension from each roller bottle was decanted into tared centrifuge tubes and kept on ice. An aliquot of each cell suspension was generally taken for cell counting. Cells were centrifuged at 3000×G for 5 minutes at 2-4° C., washed with PBS and recentrifuged. The supernatant was decanted, and the pellet was weighed to determine the wet weight of cells. Cells were washed a final time in 40 vol 5 mM Tris-HCl, 5 mM EDTA, pH=7.7 and centrifuged at 40,000×G for 10 minutes (“vol” indicates volume/weight, e.g., a “vol” of 40 would indicate that the one gram of cells were washed with 40 mls of buffer). Cells were homogenized in of 50 mM Tris-HCl, 5 mM EDTA (pH=7.4) (10 mL) and diluted to 40 mL/tube. Homogenates were centrifuged at 40,000×G for 10 minutes. The supernatant was decanted and the pellets rehomogenized in 50 mM Tris-HCl (pH=7.4) and centrifuged as before.
Following equilibration, bound radioligand was separated from free on GF/B filters (presoaked in 0.5% polyethyleneimine) using ither a Brandel or Packard cell harvester. Radioactivity was determined by standard liquid scintillation techniques.

Molecule | Ki [nM]
COc1cccc2c1N1CCN(CCn3c(=O)[nH]c4c(sc5ncc(Cl)nc54)c3=O)CC1CO2.Cl.Cl (single isomer, unassigned; (+)) [Example 8, (+) 3-[2-(10-methoxy-1,2,4a,5-tetrahydropyrazino[2,1-c][1,4]benzoxazin-3(4H)-yl)ethyl]-8-chloropyrazino[2′,3′:4,5]thieno[3,2-d]pyrimidine-2,4(1H,3H)-dione dihydrochloride] | 1.78
O=c1[nH]c2c(sc3cccnc32)c(=O)n1CCCCN1CCN2c3ccccc3OCC2C1 (single isomer, unassigned; (-)) [Example 4, (−) 3-[4-(1.2,4a,5-tetrahydropyrazino[2,1-c][1,4benzoxazin-3(4H)-yl)butyl]pyrido[2′,3′:4,5]thieno[3,2-d]pyrimidine-2,4(1H,3H)-dione dihydrochloride] | 6.62
COc1cccc2c1N1CCN(CCCCn3c(=O)[nH]c4c(sc5ncc(Cl)nc54)c3=O)CC1CO2.Cl.Cl (single isomer, unassigned; (-)) [Example 12, (−) 3-[4-(10-methoxy-1,2,4a,5-tetrahydropyrazino[2,1-c][1,4]benzoxazin-3(4H)-yl)butyl]-8-chloropyrazino[2′,3′:4,5]thieno[3,2-d]pyrimidine-2,4(1H,3H)-dione dihydrochloride] | 0.648
COc1cccc2c1N1CCN(CCCn3c(=O)[nH]c4c(sc5cccnc54)c3=O)CC1CO2.Cl.Cl.Cl (single isomer, unassigned; (+)) [Example 17, (+) 3-[3-(10-methoxy-1,2,4a,5-tetrahydropyrazino[2,1-c][1,4]benzoxazin-3(4H)-yl)propyl]pyrido[2′,3′:4,5]thieno[3,2-d]pyrimidine-2,4(1H,3H)-dione trihydrochloride] | 4.44
COc1cccc2c1N1CCN(CCn3c(=O)[nH]c4c(sc5ncc(Cl)nc54)c3=O)CC1CO2.Cl.Cl (single isomer, unassigned; (-)) [Example 13, (−) 3-[2-(10-methoxy-1,2,4a,5-tetrahydropyrazino[2,1-c][1,4]benzoxazin-3(4H)-yl)ethyl]-8-chloropyrazino[2′,3′:4,5]thieno[3,2-d]pyrimidine-2,4(1H,3H)-dione dihydrochloride] | 1.55
Cl.Cl.O=c1[nH]c2c(sc3cccnc32)c(=O)n1CCCCN1CCN2c3ccccc3OCC2C1 (single isomer, unassigned; (+)) [Example 3, (+) 3-[4-(1,2,4a,5-tetrahydropyrazino[2,1-c][1,4]benzoxazin-3(4H)-yl)butyl]pyrido[2′, 3′:4,5]thieno[3,2-d]pyrimidine-2,4(1H,3H)-dione dihydrochloride] | 2.85
Cl.Cl.O=c1[nH]c2c(sc3ncccc32)c(=O)n1CCCCN1CCN2c3ccccc3OCC2C1 (single isomer, unassigned; (-)) [Example 6, (−) 3-[4-(1,2,4a,5-tetrahydropyrazino[2,1-c][1,4]benzoxazin-3(4H)-yl)butyl]pyrido[3′, 2′:4,5]thieno[3,2-d]pyrimidine-2,4(1H,3H)-dione dihydrochloride] | 9.83
COc1cccc2c1N1CCN(CCCCn3c(=O)[nH]c4c(sc5ncccc54)c3=O)CC1CO2 (single isomer, unassigned; (-)) [Example 11, (−) 3-[4-(10-methoxy-1,2,4a,5-tetrahydropyrazino[2,1-c][1,4]benzoxazin-3(4H)-yl)butyl]pyrido[3′,2′:4.5]thieno[3,2-d]pyrimidine-2,4(1H,3H)-dione trihydrochloride] | 0.24
COc1cccc2c1N1CCN(CCn3c(=O)[nH]c4c(sc5cccnc54)c3=O)CC1CO2.Cl.Cl (single isomer, unassigned; (-)) [Example 7, (−) 3-[2-(10methoxy-1,2,4a,5-tetrahydropyrazino[2,1-c][1,4]benzoxazin-3(4H)-yl)ethyl]pyrido[2′,3′:4,5]thieno[3,2-d]pyrimidine-2,4(1H,3H)-dione dihydrochloride] | 0.864
Cl.Cl.O=c1[nH]c2c(sc3cccnc32)c(=O)n1CCCN1CCN2c3ccccc3OCC2C1 (single isomer, unassigned; (+)) [Example 1, (+) 3-[3-(1,2,4a,5-tetrahydropyrazino[2,1-c][1,4]benzoxazin-3(4H)-yl)propyl]pyrido[2′,3′:4,5]thieno[3,2-d]pyrimidine-2,4(1H,3H)-dione dihydrochloride] | 1.84
COc1cccc2c1N1CCN(CCCCn3c(=O)[nH]c4c(sc5cccnc54)c3=O)CC1CO2 (single isomer, unassigned; (+)) [Example 14, (+) 3-[4-(10-methoxy-1,2,4a,5-tetrahydropyrazino[2,1-c][1,4]benzoxazin-3(4H)-yl)butyl]pyido [2′,3′:4,5]thieno[3,2-d]pyrimidine-2,4(1H,3H)-dione trihydrochloride] | 0.29
(−) 3-[3-(10-methoxy-1,2,4a,5-tetrahydropyrazino[2,1-c][1,4]benzoxazin-3(4H)-yl)butyl]pyrido[2′,3′:4,5]thieno[3,2-d]pyrimidine-2,4(1H,3H)-dione trihydrochloride [Example 10] | 0.257
O=c1[nH]c2c(sc3cccnc32)c(=O)n1CCCN1CCN2c3ccccc3OCC2C1 (single isomer, unassigned; (-)) [Example 2, (−) 3-[3-(1,2,4a,5-tetrahydropyrazino[2,1-c][1,4]benzoxazin-3(4H)-yl)propyl]pyrido[2′,3′:4,5]thieno[3,2-d]pyrimidine-2,4(1H,3H)-dione dihydrochloride] | 19.3
COc1cccc2c1N1CCN(CCn3c(=O)[nH]c4c(sc5cccnc54)c3=O)CC1CO2.Cl.Cl.Cl (single isomer, unassigned; (+)) [Example 16, (+) 3-[2-(10-methoxy-1,2,4a,5-tetrahydropyrazino[2,1-c][1,4]benzoxazin-3(4H)-yl)ethyl]pyrido[2′,3′:4,5]thieno[3,2-d]pyrimidine-2,4(1H,3H)-dione trihydrochloride] | 1.24
COc1cccc2c1N1CCN(CCCCn3c(=O)[nH]c4c(sc5ncccc54)c3=O)CC1CO2.Cl.Cl.Cl (single isomer, unassigned; (+)) [Example 15, (+) 3-[4-(10-methoxy-1,2,4a,5-tetrahydropyrazino[2,1-c][1,4]benzoxazin-3(4H)-yl)butyl]pyrido[3′,2′:4,5]thieno[3,2-d]pyrimidine-2,4(1H,3H)-dione trihydrochloride] | 0.447
COc1cccc2c1N1CCN(CCCn3c(=O)[nH]c4c(sc5cccnc54)c3=O)CC1CO2.Cl.Cl.Cl (single isomer, unassigned; (-)) [Example 9, (−) 3-[3-(10-methoxy-1,2,4a,5-tetrahydropyrazino[2,1-c][1,4]benzoxazin-3(4H)-yl)propyl]pyrido[2′,3′:4,5]thieno[3,2-d]pyrimidine-2,4(1H, 3H)-dione trihydrochloride] | 0.359
Cl.Cl.O=c1[nH]c2c(sc3ncccc32)c(=O)n1CCCCN1CCN2c3ccccc3OCC2C1 (single isomer, unassigned; (+)) [Example 5, (+) 3-[4-(1,2,4a,5-tetrahydropyrazino[2,1-c][1,4]benzoxazin-3(4H)-yl)butyl]pyrido[3′, 2′:4,5]thieno[3,2-d]pyrimidine-2,4(1H,3H)-dione dihydrochloride] | 5.02
